Test results: publication PMC5578373, “Inhibitory Kappa B Kinase α (IKKα) Inhibitors That Recapitulate Their Selectivity in Cells against Isoform-Related Biomarkers” (Journal of Medicinal Chemistry, 2017)
Entries after “also recorded” stand apart in the source; their conditions may differ.

Columns and labels:
[1] = test system: IKKβ-dependent IκBα degradation in U2OS cells; assay: TNFα-induced IκBα degradation in U2OS cells, Western blot; assay type: cell-based, human; conditions: highest concentration 100 μM, TNF-α (10 ng/mL) 30 min
Experimental: (§1) Two IKKβ-dependent readouts were selected to assess selectivity over IKKβ. First, TNFα stimulates IκBα degradation through activation of IKKβ and if IKKβ is inhibited, then a band corresponding to the IκBα protein should be evident by Western analysis. Second, IKKβ phosphorylates p65 on Ser536, which can also be assessed by Western blot analysis. Only at the highest concentration (100 μM) of 48 was IκBα degradation and p65 (Ser536) phosphorylation inhibited (Figure 9b). Even at this high concentration, these effects were not apparent following pretreatment with 47 (Figure 10b).
(§2) Figure 9 Effect of compound 48 on (a) FCS-stimulated noncanonical and (b) TNF-α-induced canonical NF-kB activation in U2OS cells. […] Whole cell lysate were prepared, separated by SDS-PAGE, and assessed for (a) inhibition of p100 phosphorylation (Ser866/870) and (b) IkB-α and p-p65 (Ser536) status. […]
as §2, with “10” for “9”, “47” for “48”
(§3) Whole cell lysates were prepared from U2OS and status of IκBα, p65, p-p65 (Ser536), and p-p100 (Ser 866/870) assessed by Western blotting as described in Mackenzie et al. (2007).[46]

[2] = test system: IKKβ-dependent p65 (Ser536) phosphorylation in U2OS cells; assay: TNFα-induced p65 (Ser536) phosphorylation in U2OS cells, Western blot; assay type: cell-based, human; conditions: highest concentration 100 μM, TNF-α (10 ng/mL) 30 min
Experimental: as §1, §2
as §2, with “10” for “9”, “47” for “48”
as §3

[3] = test system: IKKα-regulated NF-κB transcriptional activation in IKKβ−/− MEFs; assay: IL-1β-stimulated NF-κB-luciferase transcriptional activity in IKKβ knockout MEFs; assay type: cell-based, mouse; conditions: maximal concentrations of 50–100 μM
Experimental: To provide further evidence for cellular activity, mouse embryonic fibroblasts lacking the IKKβ kinase subunit were utilized to investigate the potency of both compounds against agonist-stimulated IKKα-regulated NF-κB transcriptional activation. Cells were infected with an adenovirus encoding an NF-κB-luciferase promoter gene. NF-κB transcriptional activity driven by IKKα was stimulated specifically using IL-1β,[41] and the ability of the compounds to inhibit this response was assessed. […] As IKKα plays a lesser role in the canonical NF-κB cascade,[42] particularly the rapid and transient stimulated degradation of IκBα, selective IKKα inhibitors should not affect TNF-α induced IκBα degradation and p65 phosphorylation.
U2OS cells were cultured with McCoy’s 5A modified medium and MEF were cultured with DEME medium containing 10% (v/v) FCS and medium was changed every 2 d thereafter until cells became confluent. Cells were incubated at 37 °C in humidified air with 5% CO2 and rendered quiescent by serum deprivation for 24 h prior to stimulation in serum-free medium.
An adenoviral vector encoding NFκB-luciferase (Adv.NFκB-Luc) was purchased from Vector Biolabs (University of Pennsylvania, Philadelphia, US). Large-scale production of high titer recombinant adenovirus was performed by routine methods.[47] IKKβ knockout mouse embryonic fibroblasts (MEFs; kindly provided by Prof. I. Verma, UCSD, USA) were counted when approximately 60–70% confluent in T75 cm^2 flasks and infected with adenovirus up to 300 pfu/cell^–1 for 24 h in 10% DMEM. Cells were then lifted from the flasks and plated into 96-well clear bottom, black luciferase plates and allowed to settle for 24 h before serum starved overnight. Cells were then stimulated with the appropriate agonists for the indicated times and reactions terminated by addition of lysis buffer containing 0.2 mM luciferin substrate. Relative light units (RLU) were measured using a Trilux microbeta counter (luminometer).

CHK1(h) = biological target: T1, CHK1(h) (Homo sapiens, UniProt O14757); assay: Millipore Kinase Profiler, single concentration; assay type: biochemical; conditions: duplicate assay points, read-out: % residual activity
T1 construct: purchased Millipore KinaseProfiler
Excerpt: (§4) Kinase profiling of compound 48 was outsourced to Millipore, specifically the Kinase Profiler Customer Service for single concentration studies using duplicate assay points.

CK2(h) = biological target: T2, CK2(h) (Homo sapiens, UniProt P68400); assay: Millipore Kinase Profiler, single concentration; assay type: biochemical; conditions: duplicate assay points, read-out: % residual activity
T2 construct: purchased Millipore KinaseProfiler
Excerpt: as §4

Abl(h) = biological target: T3, Abl(h) (Homo sapiens, UniProt P00519); assay: Millipore Kinase Profiler, single concentration; assay type: biochemical; conditions: duplicate assay points, read-out: % residual activity
T3 construct: purchased Millipore KinaseProfiler
Excerpt: as §4

IR(h) = biological target: T4, IR(h) (Homo sapiens, UniProt P06213); assay: Millipore Kinase Profiler, single concentration; assay type: biochemical; conditions: duplicate assay points, read-out: % residual activity
T4 construct: purchased Millipore KinaseProfiler
Excerpt: as §4

PRK2(h) = biological target: T5, PRK2(h) (Homo sapiens, UniProt Q16513); assay: Millipore Kinase Profiler, single concentration; assay type: biochemical; conditions: duplicate assay points, read-out: % residual activity
T5 construct: purchased Millipore KinaseProfiler
Excerpt: as §4

LIMK1(h) = biological target: T6, LIMK1(h) (Homo sapiens, UniProt P53667); assay: Millipore Kinase Profiler, single concentration; assay type: biochemical; conditions: duplicate assay points, read-out: % residual activity
T6 construct: purchased Millipore KinaseProfiler
Excerpt: as §4

PKBα(h) = biological target: T7, PKBα(h) (Homo sapiens, UniProt P31749); assay: Millipore Kinase Profiler, single concentration; assay type: biochemical; conditions: duplicate assay points, read-out: % residual activity
T7 construct: purchased Millipore KinaseProfiler
Excerpt: as §4

Fes(h) = biological target: T8, Fes(h) (Homo sapiens, UniProt P07332); assay: Millipore Kinase Profiler, single concentration; assay type: biochemical; conditions: duplicate assay points, read-out: % residual activity
T8 construct: purchased Millipore KinaseProfiler
Excerpt: as §4

TBK1(h) = biological target: T9, TBK1(h) (Homo sapiens, UniProt Q9UHD2); assay: Millipore Kinase Profiler, single concentration; assay type: biochemical; conditions: duplicate assay points, read-out: % residual activity
T9 construct: purchased Millipore KinaseProfiler
Excerpt: as §4

CaMKI(h) = biological target: T10, CaMKI(h) (Homo sapiens, UniProt Q14012); assay: Millipore Kinase Profiler, single concentration; assay type: biochemical; conditions: duplicate assay points, read-out: % residual activity
T10 construct: purchased Millipore KinaseProfiler
Excerpt: as §4

FGFR3(h) = biological target: T11, FGFR3(h) (Homo sapiens, UniProt P22607); assay: Millipore Kinase Profiler, single concentration; assay type: biochemical; conditions: duplicate assay points, read-out: % residual activity
T11 construct: purchased Millipore KinaseProfiler
Excerpt: as §4

MAPKAP-K2(h) = biological target: T12, MAPKAP-K2(h) (Homo sapiens, UniProt P49137); assay: Millipore Kinase Profiler, single concentration; assay type: biochemical; conditions: duplicate assay points, read-out: % residual activity
T12 construct: purchased Millipore KinaseProfiler
Excerpt: as §4

T11 sequence (P22607 23-806): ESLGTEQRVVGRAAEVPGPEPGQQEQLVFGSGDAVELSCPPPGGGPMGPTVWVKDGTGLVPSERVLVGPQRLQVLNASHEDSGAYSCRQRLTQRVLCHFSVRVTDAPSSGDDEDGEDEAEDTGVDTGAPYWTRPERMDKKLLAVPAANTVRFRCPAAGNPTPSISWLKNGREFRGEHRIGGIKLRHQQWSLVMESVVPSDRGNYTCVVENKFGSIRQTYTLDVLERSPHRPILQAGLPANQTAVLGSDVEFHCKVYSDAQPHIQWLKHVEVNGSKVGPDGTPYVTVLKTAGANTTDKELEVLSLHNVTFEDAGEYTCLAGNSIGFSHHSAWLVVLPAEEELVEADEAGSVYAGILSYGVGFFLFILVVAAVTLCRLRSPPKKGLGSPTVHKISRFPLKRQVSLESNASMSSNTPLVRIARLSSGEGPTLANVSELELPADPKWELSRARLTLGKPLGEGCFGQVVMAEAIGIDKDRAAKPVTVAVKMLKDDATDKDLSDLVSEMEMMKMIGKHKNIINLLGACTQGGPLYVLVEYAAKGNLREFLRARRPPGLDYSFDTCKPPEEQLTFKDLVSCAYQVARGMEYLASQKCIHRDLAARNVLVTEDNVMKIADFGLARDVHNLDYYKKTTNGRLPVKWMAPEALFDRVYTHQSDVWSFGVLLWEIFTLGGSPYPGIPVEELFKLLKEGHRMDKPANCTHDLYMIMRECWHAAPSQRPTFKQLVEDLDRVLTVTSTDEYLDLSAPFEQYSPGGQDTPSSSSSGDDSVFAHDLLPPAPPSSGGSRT
T6 sequence (P53667 whole entry): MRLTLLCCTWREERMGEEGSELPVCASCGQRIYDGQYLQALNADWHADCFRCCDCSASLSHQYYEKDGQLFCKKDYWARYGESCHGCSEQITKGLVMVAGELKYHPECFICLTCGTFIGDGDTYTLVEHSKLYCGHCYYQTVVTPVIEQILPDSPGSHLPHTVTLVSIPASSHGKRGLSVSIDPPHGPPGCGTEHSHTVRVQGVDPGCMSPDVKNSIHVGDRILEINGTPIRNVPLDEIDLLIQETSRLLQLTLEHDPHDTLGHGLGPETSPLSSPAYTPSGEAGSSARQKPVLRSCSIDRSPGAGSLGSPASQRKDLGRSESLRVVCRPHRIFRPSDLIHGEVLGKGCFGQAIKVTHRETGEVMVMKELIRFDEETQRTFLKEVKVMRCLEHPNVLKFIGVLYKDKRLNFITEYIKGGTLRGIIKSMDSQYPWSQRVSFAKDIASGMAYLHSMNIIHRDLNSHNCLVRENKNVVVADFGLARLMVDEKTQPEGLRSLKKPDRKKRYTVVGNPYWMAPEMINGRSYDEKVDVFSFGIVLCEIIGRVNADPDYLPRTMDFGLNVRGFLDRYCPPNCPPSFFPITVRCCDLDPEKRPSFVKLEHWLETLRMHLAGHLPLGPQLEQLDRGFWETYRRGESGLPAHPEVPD
T12 sequence (P49137 whole entry): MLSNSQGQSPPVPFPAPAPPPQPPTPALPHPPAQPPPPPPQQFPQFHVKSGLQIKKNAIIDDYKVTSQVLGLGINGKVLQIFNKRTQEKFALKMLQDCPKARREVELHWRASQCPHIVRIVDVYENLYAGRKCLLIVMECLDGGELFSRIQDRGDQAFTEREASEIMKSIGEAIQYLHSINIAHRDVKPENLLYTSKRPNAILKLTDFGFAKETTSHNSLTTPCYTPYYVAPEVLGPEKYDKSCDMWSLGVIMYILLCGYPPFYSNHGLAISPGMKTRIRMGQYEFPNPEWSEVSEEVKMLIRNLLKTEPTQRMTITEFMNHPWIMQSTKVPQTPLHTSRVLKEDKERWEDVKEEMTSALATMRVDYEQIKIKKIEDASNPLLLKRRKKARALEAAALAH
T3 sequence (P00519 whole entry): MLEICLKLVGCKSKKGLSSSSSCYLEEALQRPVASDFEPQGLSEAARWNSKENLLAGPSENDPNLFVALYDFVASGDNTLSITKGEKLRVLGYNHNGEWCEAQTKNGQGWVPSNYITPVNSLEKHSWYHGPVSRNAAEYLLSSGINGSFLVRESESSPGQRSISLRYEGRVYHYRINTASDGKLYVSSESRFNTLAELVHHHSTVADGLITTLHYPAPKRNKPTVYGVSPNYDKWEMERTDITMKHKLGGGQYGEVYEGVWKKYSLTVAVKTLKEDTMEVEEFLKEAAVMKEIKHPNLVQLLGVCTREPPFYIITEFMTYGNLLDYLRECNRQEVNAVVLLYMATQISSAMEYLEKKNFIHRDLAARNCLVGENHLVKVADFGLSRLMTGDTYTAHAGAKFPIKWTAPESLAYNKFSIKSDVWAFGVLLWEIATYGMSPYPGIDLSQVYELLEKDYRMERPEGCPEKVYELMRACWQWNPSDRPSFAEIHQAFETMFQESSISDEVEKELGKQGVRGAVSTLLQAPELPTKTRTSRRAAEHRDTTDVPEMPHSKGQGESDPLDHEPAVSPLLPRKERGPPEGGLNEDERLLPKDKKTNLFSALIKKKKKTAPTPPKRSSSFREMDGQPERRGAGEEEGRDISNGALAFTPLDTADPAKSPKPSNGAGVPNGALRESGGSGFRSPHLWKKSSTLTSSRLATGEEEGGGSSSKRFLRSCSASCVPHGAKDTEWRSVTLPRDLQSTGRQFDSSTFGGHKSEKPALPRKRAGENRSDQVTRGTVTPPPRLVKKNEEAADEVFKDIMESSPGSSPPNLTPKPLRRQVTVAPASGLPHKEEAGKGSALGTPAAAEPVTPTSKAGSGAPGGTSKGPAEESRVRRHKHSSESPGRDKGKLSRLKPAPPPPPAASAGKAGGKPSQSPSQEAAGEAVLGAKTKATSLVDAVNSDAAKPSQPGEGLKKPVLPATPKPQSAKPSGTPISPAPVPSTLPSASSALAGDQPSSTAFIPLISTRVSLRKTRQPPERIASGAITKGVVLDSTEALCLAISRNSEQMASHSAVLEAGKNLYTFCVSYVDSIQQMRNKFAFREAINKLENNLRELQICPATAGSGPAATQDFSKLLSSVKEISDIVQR
T5 sequence (Q16513 whole entry): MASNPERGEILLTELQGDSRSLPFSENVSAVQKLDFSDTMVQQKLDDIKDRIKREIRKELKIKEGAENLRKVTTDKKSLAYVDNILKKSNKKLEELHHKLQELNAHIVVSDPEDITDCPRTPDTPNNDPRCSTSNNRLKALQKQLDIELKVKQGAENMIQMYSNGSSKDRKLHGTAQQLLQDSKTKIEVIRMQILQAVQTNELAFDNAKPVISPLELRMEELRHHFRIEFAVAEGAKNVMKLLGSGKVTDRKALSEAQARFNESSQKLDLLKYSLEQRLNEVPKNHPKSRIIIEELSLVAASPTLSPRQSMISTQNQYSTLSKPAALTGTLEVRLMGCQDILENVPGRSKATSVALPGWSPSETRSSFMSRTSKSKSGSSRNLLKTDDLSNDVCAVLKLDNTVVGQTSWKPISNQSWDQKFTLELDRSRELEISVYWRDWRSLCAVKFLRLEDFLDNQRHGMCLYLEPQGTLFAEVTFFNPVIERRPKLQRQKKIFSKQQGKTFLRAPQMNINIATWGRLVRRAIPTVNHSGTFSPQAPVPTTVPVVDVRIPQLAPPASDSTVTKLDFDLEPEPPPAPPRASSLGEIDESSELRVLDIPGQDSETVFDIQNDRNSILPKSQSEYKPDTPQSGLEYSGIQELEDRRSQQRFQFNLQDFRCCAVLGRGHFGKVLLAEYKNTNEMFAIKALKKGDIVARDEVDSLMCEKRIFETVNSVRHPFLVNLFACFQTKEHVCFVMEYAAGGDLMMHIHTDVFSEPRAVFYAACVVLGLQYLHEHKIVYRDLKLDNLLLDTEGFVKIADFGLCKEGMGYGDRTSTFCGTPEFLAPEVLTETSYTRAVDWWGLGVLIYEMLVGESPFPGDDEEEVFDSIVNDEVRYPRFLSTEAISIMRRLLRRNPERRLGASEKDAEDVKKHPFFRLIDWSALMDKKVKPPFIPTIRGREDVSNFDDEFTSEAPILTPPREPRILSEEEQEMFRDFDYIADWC
T7 sequence (P31749 whole entry): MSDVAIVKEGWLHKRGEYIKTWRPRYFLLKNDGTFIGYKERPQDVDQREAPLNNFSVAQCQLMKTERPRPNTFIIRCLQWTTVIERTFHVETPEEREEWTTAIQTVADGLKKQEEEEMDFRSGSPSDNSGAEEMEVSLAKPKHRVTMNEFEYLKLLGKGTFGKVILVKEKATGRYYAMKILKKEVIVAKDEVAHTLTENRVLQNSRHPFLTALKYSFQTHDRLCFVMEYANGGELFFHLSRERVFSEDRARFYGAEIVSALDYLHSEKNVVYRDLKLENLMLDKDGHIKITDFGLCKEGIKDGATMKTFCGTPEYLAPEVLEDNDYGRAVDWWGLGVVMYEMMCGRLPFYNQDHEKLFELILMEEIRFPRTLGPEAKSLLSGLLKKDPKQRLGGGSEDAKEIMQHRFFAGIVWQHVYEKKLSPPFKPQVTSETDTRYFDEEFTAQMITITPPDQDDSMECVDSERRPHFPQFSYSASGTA
T1 sequence (O14757 whole entry): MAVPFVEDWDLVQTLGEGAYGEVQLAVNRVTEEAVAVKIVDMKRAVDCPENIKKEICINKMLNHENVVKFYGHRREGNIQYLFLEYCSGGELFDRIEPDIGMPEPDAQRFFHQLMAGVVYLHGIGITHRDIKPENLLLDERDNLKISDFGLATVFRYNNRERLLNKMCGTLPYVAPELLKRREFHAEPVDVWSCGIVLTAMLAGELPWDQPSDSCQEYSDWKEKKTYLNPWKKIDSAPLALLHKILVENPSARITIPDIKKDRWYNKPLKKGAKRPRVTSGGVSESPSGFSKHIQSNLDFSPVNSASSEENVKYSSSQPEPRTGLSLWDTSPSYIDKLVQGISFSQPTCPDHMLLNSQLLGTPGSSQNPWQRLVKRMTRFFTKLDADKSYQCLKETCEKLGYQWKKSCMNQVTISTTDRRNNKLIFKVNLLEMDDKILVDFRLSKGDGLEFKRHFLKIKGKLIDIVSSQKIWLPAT

effect on NF-κB transcriptional activity [3]: abolished transcriptional activity | remaining activity at 10 µM (CHK1(h)): 58% | remaining activity at 10 µM (CK2(h)): 37% | remaining activity at 10 µM (Abl(h)): 69% | remaining activity at 10 µM (IR(h)): 89% | remaining activity at 10 µM (PRK2(h)): 31% | remaining activity at 10 µM (LIMK1(h)): 30% | remaining activity at 10 µM (PKBα(h)): 93% | remaining activity at 10 µM (Fes(h)): 27% | remaining activity at 10 µM (TBK1(h)): 54% | remaining activity at 10 µM (CaMKI(h)): 12% | remaining activity at 10 µM (FGFR3(h)): 32% | remaining activity at 10 µM (MAPKAP-K2(h)): 69%
SMILES: N#Cc1c[nH]c2nc(N)nc(-c3ccc(S(N)(=O)=O)cc3)c12 [Compound 48, 4-(2-Amino-5-cyano-7H-pyrrolo[2,3-d]pyrimidin-4-yl)benzenesulfonamide]
inhibition of TNFα-stimulated IκBα degradation [1]: inhibited; also recorded: small effect | inhibition of TNFα-stimulated p65 (Ser536) phosphorylation [2]: inhibited; also recorded: small effect | % stim ([3]; Il-1β+DMSO = 100%): −40.9 ± 4.6%
